{"source": "patent US20200368247A1", "about": "“CENICRIVIROC FOR THE TREATMENT OF FIBROSIS” (Tobira Therapeutics, Inc., priority 2014, published 2020)", "key": {"CCR5 [1]": {"target": "T1, CCR5 (Homo sapiens, UniProt P51681)", "T1 sequence (P51681 whole entry)": "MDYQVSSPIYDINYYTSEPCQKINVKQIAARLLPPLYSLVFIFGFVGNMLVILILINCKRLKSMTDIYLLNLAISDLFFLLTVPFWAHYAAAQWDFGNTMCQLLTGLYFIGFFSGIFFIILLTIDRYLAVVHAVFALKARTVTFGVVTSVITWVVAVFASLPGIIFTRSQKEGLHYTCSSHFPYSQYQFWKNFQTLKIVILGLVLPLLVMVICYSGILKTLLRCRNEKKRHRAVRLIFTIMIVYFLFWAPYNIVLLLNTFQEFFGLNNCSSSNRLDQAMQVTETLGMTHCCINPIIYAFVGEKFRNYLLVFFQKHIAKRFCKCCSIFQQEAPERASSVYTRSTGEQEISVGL", "assay": "Inhibition of ligand binding to CCR5-expressing CHO cells"}, "CCR2": {"target": "T2, CCR2 (Homo sapiens, UniProt P41597)", "T2 construct": "endogenous in cells; host or cells: monocytes within PBMCs from HIV+ and HIV- subjects", "T2 sequence (P41597 1-360 isoform P41597-2)": "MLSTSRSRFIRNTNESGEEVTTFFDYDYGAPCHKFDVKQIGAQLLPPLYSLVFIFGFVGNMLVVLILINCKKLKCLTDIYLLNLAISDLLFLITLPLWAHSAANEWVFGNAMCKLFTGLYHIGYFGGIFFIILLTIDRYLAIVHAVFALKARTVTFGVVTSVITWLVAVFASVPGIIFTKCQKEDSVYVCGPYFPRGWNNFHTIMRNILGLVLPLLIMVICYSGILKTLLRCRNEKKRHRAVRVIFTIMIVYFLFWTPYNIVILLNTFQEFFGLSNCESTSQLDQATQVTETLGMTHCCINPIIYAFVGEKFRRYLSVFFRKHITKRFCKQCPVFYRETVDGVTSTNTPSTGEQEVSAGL", "assay": "CCR2 receptor occupancy / MCP-1-induced CCR2 internalization in PBMCs, flow cytometry", "assay_type": "cell-based", "method": "(§1) The capacity of each drug to inhibit CCR5 or CCR2 internalization was evaluated. Cell-surface expression of CCR5 and CCR2 was assessed by flow cytometry, and fluorescence values were converted into molecules of equivalent soluble fluorescence (MESF)."}, "HIV-1 BaL": {"tested_on": "HIV-1 BaL", "assay": "PM-1 cells exposed to HIV-1 BaL: virus in culture fluids (qRT-PCR, p24) and intracellular strong-stop DNA", "assay_type": "cell-based", "conditions": "4 hrs", "from_the_text": "Cells. PM-1 cells that express CD4, CCR5, and CXCR4 were maintained in RPMI-1640 medium containing 10% fetal bovine serum (R10 medium) at 37 C, 5% CO2. 293T cells used for transfection were maintained in DMEM at 10% FBS, L-glutamine, and antibiotics (D10 medium) at 37 C, 5% CO2. Virus Stocks. HIV-1 BaL virus was produced by transfecting 293T cells with the plasmid pWT/BaL. Lipofectamine 2000 was used as a transfection agent. Culture supernatants were collected at 48 hrs post-transfection, filtered through a 0.45 μm pore filter, and treated with 50 units of benzonase per ml of virus stock for 20 minutes at 37 C to remove contaminating plasmid DNA. […]\nBoth drugs were incubated with PM-1 cells for 1 hr at 37 C prior to the addition of virus. […] Viral adsorption was measured in the no-drug controls, whereby 500 ng of p24 Ag of HIV-1 Bal were added per 5×10^5 PM-1 cells that were pre-incubated at 37 C for 1 hr in the absence of drug treatment. […] Supernatant viral loads were measured using quantitative real-time reverse transcription PCR (qRT-PCR) with the primers US1SSF (5′-ΔΔ[…]-3′), US1SSR (5′-[…]-3′) and US1SS probe (5′-(FAM) […]) and the Invitrogen qRT-PCR Supermix Kit. […] RNA copy number was quantified by use of 10-fold serial dilutions of pBaL/wt to generate standard curves for each assay and calibrated against samples with known copy numbers from previous studies. […]"}, "CCR5 [2]": {"target": "T1, CCR5", "assay": "CCR5 receptor occupancy / RANTES-induced CCR5 internalization in PBMCs, flow cytometry", "assay_type": "cell-based", "conditions": "at saturating concentration", "method": "as §1"}}, "data": [{"compound": "CCCCOCCOc1ccc(-c2ccc3c(c2)C=C(C(=O)Nc2ccc(SC)cc2)CCCN3CC(C)C)cc1", "note": "[M-II]", "values": [{"measurement": "IC50, inhibition of binding of RANTES to CCR5-expressing cells", "setting": "CCR5 [1]; CHO cells", "result": "no effect"}]}, {"compound": "CSc1ccc(C(=O)N[C@@H]2CCCC[C@@H]2NC(=O)CNC(=O)c2cc(C(F)(F)F)ccc2NC(=O)NC(C)C)cc1", "note": "[BMS-22, reference compound]", "values": [{"measurement": "concentration required to reach >80% receptor occupancy", "setting": "CCR2; CCR2, average", "result": 18, "unit": "nM"}, {"measurement": "CCR2 cell-surface expression", "setting": "CCR2; in the absence of MCP-1, monocytes", "result": "slightly increased"}]}, {"compound": "Maraviroc [MVC]", "values": [{"measurement": "p24 antigen level in culture fluids", "setting": "HIV-1 BaL; CVC 20 nM, MVC 50 nM, baseline 506", "result": 520, "unit": "ng/mL"}, {"measurement": "relative intracellular strong-stop HIV DNA level compared to no drug control", "setting": "HIV-1 BaL; PM-1 cells", "result": 0.02}, {"measurement": "CCR5 receptor occupancy", "setting": "CCR5 [2]; CD4+ T cells", "result": "~86", "unit": "%"}, {"measurement": "CCR5 receptor occupancy", "setting": "CCR5 [2]; CD8+ T cells", "result": "~87", "unit": "%"}]}, {"compound": "CCCCOCCOc1ccc(-c2ccc3c(c2)C=C(C(=O)Nc2ccc(S(=O)(=O)Cc4cncn4CCC)cc2)CCCN3CC(C)C)cc1", "note": "[M-I]", "values": [{"measurement": "IC50 relative to the IC50 of CVC", "setting": "CCR5 [1]; RANTES binding to CCR5-expressing cells", "result": "approximately 2 fold"}]}]}
